Experimental data as given in patent US10829501B2 (BRISTOL-MYERS SQUIBB COMPANY, priority 2016, dated 2020).
Counter-ions that a name gives are not always drawn. Like-named read-outs stand apart in the source and are kept apart here.

How the values were obtained:
[1] = target: ROCK2 (Homo sapiens, UniProt O75116); assay: ROCK2 kinase inhibition assay (LABCHIP 3000 Reader, FITC peptide substrate);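 note: rho kinase reaction read by separating phosphorylated from unphosphorylated peptide on chip, with inhibition of kinase activity computed per concentration across a dose-response series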
[2] = tested on: IL-1 beta-induced coronary stenosis; conditions: long term treatment, porcine model; cited from earlier work
[3] = tested on: rat stroke model; conditions: cited from earlier work
[4] = read-out: ROCK2 Activity (ROCK2 IC50), 5 μM ATP, 1.5 μM peptide substrate, pH 7.5

Chain of ROCK2 (O75116 whole entry, species assumed): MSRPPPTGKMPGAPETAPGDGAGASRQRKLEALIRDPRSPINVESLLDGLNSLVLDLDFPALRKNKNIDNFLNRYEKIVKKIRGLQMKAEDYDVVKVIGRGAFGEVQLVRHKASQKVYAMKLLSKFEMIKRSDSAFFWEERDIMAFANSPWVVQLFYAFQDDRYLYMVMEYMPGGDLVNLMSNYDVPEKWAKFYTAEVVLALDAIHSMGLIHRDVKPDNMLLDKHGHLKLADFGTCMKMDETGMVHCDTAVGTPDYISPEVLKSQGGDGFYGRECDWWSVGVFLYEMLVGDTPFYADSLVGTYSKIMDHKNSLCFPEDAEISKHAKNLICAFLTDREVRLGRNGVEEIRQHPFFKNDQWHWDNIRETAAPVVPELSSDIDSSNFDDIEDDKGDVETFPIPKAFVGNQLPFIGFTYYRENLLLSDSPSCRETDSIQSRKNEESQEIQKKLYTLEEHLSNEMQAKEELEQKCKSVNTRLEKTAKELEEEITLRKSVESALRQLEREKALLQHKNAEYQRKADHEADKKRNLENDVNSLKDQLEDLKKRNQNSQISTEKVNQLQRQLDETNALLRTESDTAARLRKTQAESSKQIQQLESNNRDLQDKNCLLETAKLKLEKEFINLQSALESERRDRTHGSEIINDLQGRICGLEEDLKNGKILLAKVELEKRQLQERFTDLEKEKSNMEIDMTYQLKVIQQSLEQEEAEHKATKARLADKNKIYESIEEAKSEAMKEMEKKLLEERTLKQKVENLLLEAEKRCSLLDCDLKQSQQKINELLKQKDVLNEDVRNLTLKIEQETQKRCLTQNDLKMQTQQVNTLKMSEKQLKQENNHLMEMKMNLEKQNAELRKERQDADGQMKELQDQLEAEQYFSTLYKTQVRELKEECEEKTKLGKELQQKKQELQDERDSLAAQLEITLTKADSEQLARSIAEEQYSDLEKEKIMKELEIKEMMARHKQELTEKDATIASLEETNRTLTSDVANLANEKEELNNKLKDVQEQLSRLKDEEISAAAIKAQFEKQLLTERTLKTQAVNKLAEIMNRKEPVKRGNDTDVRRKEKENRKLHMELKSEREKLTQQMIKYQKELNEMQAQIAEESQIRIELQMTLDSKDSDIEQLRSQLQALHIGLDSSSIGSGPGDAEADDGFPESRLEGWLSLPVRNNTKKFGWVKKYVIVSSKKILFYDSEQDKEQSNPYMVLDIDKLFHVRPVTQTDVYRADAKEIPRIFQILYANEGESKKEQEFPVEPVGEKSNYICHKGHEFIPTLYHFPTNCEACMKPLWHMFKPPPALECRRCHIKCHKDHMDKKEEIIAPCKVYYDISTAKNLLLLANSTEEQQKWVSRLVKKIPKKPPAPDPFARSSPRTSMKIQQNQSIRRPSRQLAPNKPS

| Compound | IC50 [1, 4] | other results |
| --- | --- | --- |
| CC(C)(O)CNc1ccc2c(C(=O)NC3CC4(C3)CC(Oc3ncccc3C(N)=O)C4)nc(C(F)F)n2c1 [Example 442, N-((aR)-6-((3-carbamoylpyridin-2-yl)oxy)spiro[3.3]heptan-2-yl)-3-(difluoromethyl)-6-((2-hydroxy-2-methylpropyl)amino)imidazo[1,5-a]pyridine-1-carboxamide] | 250 to 2500 nM | – |
| CC(C)(CN)Oc1ccc2c(C(=O)NC3CC4(C3)CC(Oc3ncccc3C(N)=O)C4)nc(C(F)F)n2c1 [Example 443, 6-((1-amino-2-methylpropan-2-yl)oxy)-N-((aR)-6-((3-carbamoylpyridin-2-yl)oxy)spiro[3.3]heptan-2-yl)-3-(difluoromethyl)imidazo[1,5-a]pyridine-1-carboxamide] | 250 to 2500 nM | – |
| C[C@@H]1CN(c2ccc3c(C(=O)NC4CC5(C4)CC(Oc4ncccc4C(N)=O)C5)nc(C(F)F)n3c2)C[C@H](C)O1 (stereo partly drawn) [Example 444, N-((aR)-6-((3-carbamoylpyridin-2-yl)oxy)spiro[3.3]heptan-2-yl)-3-(difluoromethyl)-6-((2S,6R)-2,6-dimethylmorpholino)imidazo[1,5-a]pyridine-1-carboxamide] | < 5 nM | – |
| Cc1nn(C)cc1-c1ccc2c(C(=O)NC3CC4(C3)CC(Oc3ncccc3C(N)=O)C4)nc(C(F)F)n2c1 [Example 445, N-((aR)-6-((3-carbamoylpyridin-2-yl)oxy)spiro[3.3]heptan-2-yl)-3-(difluoromethyl)-6-(1,3-dimethyl-1H-pyrazol-4-yl)imidazo[1,5-a]pyridine-1-carboxamide] | < 5 nM | – |
| NC(=O)c1cccnc1OC1CC2(CC(NC(=O)c3nc(C(F)F)n4cc(N5CCOC(CCO)C5)ccc34)C2)C1 [Example 451, N-((aR)-6-((3-carbamoylpyridin-2-yl)oxy)spiro[3.3]heptan-2-yl)-3-(difluoromethyl)-6-(2-(2-hydroxyethyl)morpholino)imidazo[1,5-a]pyridine-1-carboxamide] | 5 to 50 nM | – |
| CC(=O)N(C)Cc1ccc2c(C(=O)NC3CC4(C3)CC(Oc3ncccc3C(N)=O)C4)nc(C(F)F)n2c1 [Example 453, N-((aR)-6-((3-carbamoylpyridin-2-yl)oxy)spiro[3.3]heptan-2-yl)-3-(difluoromethyl)-6-((N-methylacetamido)methyl)imidazo[1,5-a]pyridine-1-carboxamide] | 5 to 50 nM | – |
| NC(=O)c1cccnc1OC1CC2(CC(NC(=O)c3nc(C(F)F)n4cc(N5CCN[C@H](CO)C5)ccc34)C2)C1 (stereo partly drawn) [Example 455, N-((aR)-6-((3-carbamoylpyridin-2-yl)oxy)spiro[3.3]heptan-2-yl)-3-(difluoromethyl)-6-((S)-3-(hydroxymethyl)piperazin-1-yl)imidazo[1,5-a]pyridine-1-carboxamide] | 5 to 50 nM | – |
| Cc1c(-c2ccc3c(C(=O)NC4CC5(C4)CC(Oc4ncccc4C(N)=O)C5)nc(C)n3c2)cnn1C [Example 458, N-((aR)-6-((3-carbamoylpyridin-2-yl)oxy)spiro[3.3]heptan-2-yl)-6-(1,5-dimethyl-H-pyrazol-4-yl)-3-methylimidazo[1,5-a]pyridine-1-carboxamide] | 5 to 50 nM | – |
| NC(=O)c1cccnc1OC1CC2(CC(NC(=O)c3cnn4c(C5CC5)c(OCC5(O)CCC5)ccc34)C2)C1 [Example 462, N-((aR)-6-((3-carbamoylpyridin-2-yl)oxy)spiro[3.3]heptan-2-yl)-7-cyclopropyl-6-((1-hydroxycyclobutyl)methoxy)pyrazolo[1,5-a]pyridine-3-carboxamide, TFA] | < 5 nM | – |
| [H][C@]1(Oc2ncccc2C(N)=O)C[C@]2(C[C@@H](NC(=O)c3cn4ccc(OCc5ccccc5)cc4n3)C2)C1 (stereo partly drawn) [Example 463, 7-(benzyloxy)-N-((aR)-6-((3-carbamoylpyridin-2-yl)oxy)spiro 3.31 heptan-2-yl)imidazo[1,2-a]pyridine-2-carboxamide, TFA Salt] | – | IC50 [1]: 50 to 250 nM |
| [H][C@]1(Oc2ncccc2C(N)=O)C[C@]2(C[C@@H](NC(=O)c3cn4cc(OC)ccc4n3)C2)C1 (stereo partly drawn) [Example 464, N-((aR)-6-((3-carbamoylpyridin-2-yl)oxy)spiro[3.3]heptan-2-yl)-6-methoxyimidazo[1,2-a]pyridine-2-carboxamide, TFA Salt] | – | IC50 [1]: 250 to 2500 nM |
| O=S(=O)(c1cccc2cnccc12)N1CCCNCC1 [fasudil] | – | coronary constrictive remodeling [2]: promote a regression of coronary constrictive remodeling; coronary stenosis [2]: progressively reduce coronary stenosis; infarct size and neurologic deficit [3]: reduce both the infarct size and neurologic deficit |
| N-((aR)-6-((3- carbamoylpyridin-2- yl)oxxy)spiro[3.3] heptan-2-yl)- 5-fluoro-1- (2-hydroxy-2- methylpropyl)- 3a,7a-dihydro- 1H-indazole-3- carboxamide, trifluoroacetate [Example 67] | 5 to 50 nM | – |
| N-((aR)-6-((3- carbamoylpyridin-2- yl)oxy))spiro[3.3] heptan-2-yl)- 6-((E)-3,3,3- trifluoroprop-1- en-1-yl) pyrazolo[1,5- a]pyridine-3- carboxamide, trifluoroacetate [Example 116] | 5 to 50 nM | – |
| N-((aR)-6-((3- carbamoylpyridin-2- yl)oxy)spiro [3.3]heptan-2-yl)- 6- methoxypyrazolo[1,5- a]pyridine-3- carboxamide, trifluoroacetate [Example 100] | 5 to 50 nM | – |
| N-((aR)-6-((3- carbamoylpyridin-2- yl)oxy)spiro[3.3] heptan-2-yl)- 6-(3-hydroxy-3- methylbutoxy) pyrazolo[1,5- a]pyridine-3- carboxamide, trifluoroacetate [Example 123] | 5 to 50 nM | – |
| N-((aR)- 6-((3- carbamoyl- pyridin-2- yl)oxy)spiro[3.3] heptan-2-yl)- 1-(2- hydroxy-2- methylpropyl)-1H- pyraolo[3,4-b] pyridine-3- carboxamide, trifluoroacetate [Example 94] | 5 to 50 nM | – |
| N-((aR)- 6-((3- carbamoylpyridin- 2- yl)oxy)spiro[3.3] heptan-2-yl)- 2-(3,3-difluoroazetidin- 1-yl)- 4-methylthiazole- 5- carboxamide, trifluoroacetate [Example 90] | 50 to 250 nM | – |

Second part, led by results:

| IC50 [1, 4] | Compound | other results |
| --- | --- | --- |
| < 5 nM | Cc1ncc(-c2cc(C(=O)NC3CC4(C3)CC(Oc3ncccc3C(N)=O)C4)cc(C(F)(F)F)c2)s1 [Example 446, 2-(((aR)-6-(3-(2-methylthiazol-5-yl)-5-(trifluoromethyl)benzamido)spiro[3.3]heptan-2-yl)oxy)nicotinamide] | – |
| 5 to 50 nM | Cn1cc(-c2cc(C(=O)NC3CC4(C3)CC(Oc3ncccc3C(N)=O)C4)cc(C(F)(F)F)c2)c(C(F)(F)F)n1 [Example 447, 2-(((aR)-6-(3-(1-methyl-3-(trifluoromethyl)-1H-pyrazol-4-yl)-5-(trifluoromethyl)benzamido)spiro[3.3]heptan-2-yl)oxy)nicotinamide] | – |
| < 5 nM | Cc1nn(C)cc1-c1cc(C(=O)NC2CC3(C2)CC(Oc2ncccc2C(N)=O)C3)cc(C(F)(F)F)c1 [Example 448, 2-(((aR)-6-(3-(1,3-dimethyl-1H-pyrazol-4-yl)-5-(trifluoromethyl)benzamido)spiro[3.3]heptan-2-yl)oxy)nicotinamide] | – |
| 5 to 50 nM | Cn1cncc1-c1cc(C(=O)NC2CC3(C2)CC(Oc2ncccc2C(N)=O)C3)cc(C(F)(F)F)c1 [Example 449, 2-(((aR)-6-(3-(1-methyl-1H-imidazol-5-yl)-5-(trifluoromethyl)benzamido)spiro[3.3]heptan-2-yl)oxy)nicotinamide] | – |
| 5 to 50 nM | CC1(O)CCN(c2cc(C(=O)NC3CC4(C3)CC(Oc3ncccc3C(N)=O)C4)cc(C(F)(F)F)c2)CC1 [Example 450, 2-(((aR)-6-(3-(4-hydroxy-4-methylpiperidin-1-yl)-5-(trifluoromethyl)benzamido)spiro[3.3]heptan-2-yl)oxy)nicotinamide] | – |
| 5 to 50 nM | NC(=O)c1cccnc1OC1CC2(CC(NC(=O)c3cc(N4CC5CC4CO5)cc(C(F)(F)F)c3)C2)C1 [Example 452, 2-(((aR)-6-(3-(2-oxa-5-azabicyclo[2.2.1]heptan-5-yl)-5-(trifluoromethyl)benzamido)spiro[3.3]heptan-2-yl)oxy)nicotinamide] | – |
| < 5 nM | Cc1c(-c2cc(C(=O)NC3CC4(C3)CC(Oc3ncccc3C(N)=O)C4)cc(C(F)(F)F)c2)cnn1C [Example 454, 2-(((aR)-6-(3-(1,5-dimethyl-1H-pyrazol-4-yl)-5-(trifluoromethyl)benzamido)spiro[3.3]heptan-2-yl)oxy)nicotinamide] | – |
| < 5 nM | NC(=O)c1cccnc1OC1CC2(CC(NC(=O)c3cc(N4CC5CCC(C4)O5)cc(C(F)(F)F)c3)C2)C1 [Example 456, 2-(((aR)-6-(3-(8-oxa-3-azabicyclo[3.2.1]octan-3-yl)-5-(trifluoromethyl)benzamido)spiro[3.3]heptan-2-yl)oxy)nicotinamide] | – |
| 50 to 250 nM | Cc1nc(C(=O)NC2CC3(C2)CC(Oc2ncccc2C(N)=O)C3)c2ccc(Br)cn12 [Example 457, 6-bromo-N-((aR)-6-((3-carbamoylpyridin-2-yl)oxy)spiro[3.3]heptan-2-yl)-3-methylimidazo[1,5-a]pyridine-1-carboxamide] | – |
| 5 to 50 nM | Cc1nn(C)cc1-c1ccc2c(C(=O)NC3CC4(C3)CC(Oc3ncccc3C(N)=O)C4)nc(C)n2c1 [Example 459, N-((aR)-6-((3-carbamoylpyridin-2-yl)oxy)spiro[3.3]heptan-2-yl)-6-(1,3-dimethyl-1H-pyrazol-4-yl)-3-methylimidazo[1,5-a]pyridine-1-carboxamide] | – |
| 5 to 50 nM | Cc1nc(C(=O)NC2CC3(C2)CC(Oc2ncccc2C(N)=O)C3)c2ccc(-c3cnn(C)c3)cn12 [Example 460, N-((aR)-6-((3-carbamoylpyridin-2-yl)oxy)spiro[3.3]heptan-2-yl)-3-methyl-6-(1-methyl-1H-pyrazol-4-yl)imidazo[1,5-a]pyridine-1-carboxamide] | – |
| 50 to 250 nM | NC(=O)c1cccnc1OC1CC2(CC(NC(=O)c3nc(N)nc4ccccc34)C2)C1 [Example 461, 2-Amino-N-((aR)-6-((3-carbamoylpyridin-2-yl)oxy)spiro[3.3]heptan-2-yl)quinazoline-4-carboxamide, 2 TFA] | – |
